Experimental data reported in US7399492B2, “Composition and method for issue repair and regeneration” (priority 2001, dated 2008).

Key:
Salmonella strain TA100 = assay: Ames test, strain TA100; format: cell-based; settings: Positive Control/plate, 2 ul
[1] = system: Salmonella strain TA102 base substitutive mutation strain; format: cell-based; settings: Positive Control/plate
Method: To test mutagenicity of the content of GI Capsules, Ames tests were conducted on four Salmonella strains: TA97a, TA98 frameshift mutation strain, TA100, and TA102 base substitutive mutation strain. Ames (1983) Mutation Research 113:173-215. Five genetic characteristics of these four strains were determined to meet the requirement for the testing. The content of GI Capsules at five concentrations was tested: 5 mg/plate, 2.5 mg/plate, 1.0 mg/plate, 0.5 mg/plate, 0.1 mg/plate. The negative control was PBS. […]

[2] = Body weight of mice in the laxative study; format: in vivo, mouse; settings: Positive control group (diphenoxylate 50 mg/kg BW)
Method: (§1) The content of GI Capsules was tested for laxative effects, i.e., the effects of the loosening the bowels to relieve constipation, on mouse models for constipation. Healthy Kunming mice were divided randomly into 5 groups, 20 in each group. […] The negative control group consists of 20 mice fed normally and the positive control group 20 mice fed with diphenoxylate at 50 mg/kg BW.
(§2) The test samples were diluted with distilled water into required concentrations and volume of 0.1 ml/10 g BW, and continuously administrated to the mice by oral gavage once a day for 14 days. The mice were fed with normal food during this period. On the last day of administration, mice were kept on fast for 24 hours overnight, but water was given. Then the content of GI Capsules were administered to mice in the three dosage groups by oral gavage. Twenty minutes later, diphenoxylate (50 mg/kg) was administered to all animals except those in the negative control group at the dosage of 0.1 ml/10 g. Ten minutes later, carbon ink (5% carbo activatus, 10% Arabic gum) was administered to all animals by oral gavage at the dosage of […]. All animals in each group were divided into two subgroups, 10 mice in each subgroup. One subgroup in each group was kept for observation of their dejection for 24 hours. The other was killed twenty minutes later and cut open the belly to measure the length of small intestine and the distance between pylorus and the front line of carbon ink to calculate carbon moving rates.

[3] = system: Kunming mice constipated by diphenoxylate; assay: Laxative effects on mouse models for constipation (diphenoxylate); format: in vivo; settings: Positive control group, diphenoxylate 50 mg/kg alone
Method: as §1, §2

Kunming mice [4] = settings: positive control 35 mg/kg
Kunming mice [5] = settings: positive control 35 mg/kg; remark: listed apart in the source

## COS(C)(=O)=O [MMS]
Salmonella strain TA100
  Ames mutation data TA100 −S9: 1460.00
[1]; 2 ul
  Ames mutation data TA102 −S9: 2960.00

## CCOC(=O)C1(c2ccccc2)CCN(CCC(C#N)(c2ccccc2)c2ccccc2)CC1 [diphenoxylate]
[2]
  Weight 0th day: 19.5 ± 1.2
  Weight 7th day: 25.3 ± 0.9
  Weight 14th day: 29.2 ± 1.4
[3]
  Carbon moving rate: 33.2 ± 10.5%
  First dejection time: 230.6 ± 56.0 min
[3]; 24 hours observation
  Total amounts of dejection: 1.0 ± 0.2 g
  Weight Dung grain: 16.4 ± 3.6 grain

## Nc1ccc2cc3ccccc3cc2c1 [2-AA]
[1]; 12 ug
  Ames mutation data TA102 +S9: 1411.00

## O=P1(N(CCCl)CCCl)NCCCO1 (stereo not shown) [CP, cyclophosphamide]
Kunming mice [4]; female mice
  Micronucleus rate, Female: 21.2 ± 2.28 ‰
Kunming mice [4]; female mice, of 5000 PCE
  Micronucleus PCE, Female: 106
Kunming mice [4]; male mice
  Micronucleus rate, Male: 20.6 ± 2.41 ‰
Kunming mice [4]; male mice, of 5000 PCE
  Micronucleus PCE, Male: 103
Kunming mice [5]
  Aberration rate: 20.80 ± 0.98%
Kunming mice [5]; 10 mice, of 10000 sperm
  Aberrant sperm: 2080
